# Patent publication US10053458B2, “Pyrimidine-2,4-diamine derivative and anticancer pharmaceutical composition comprising same as effective ingredient” (KOREA RESEARCH INSTITUTE OF CHEMICAL TECHNOLOGY, priority 2014, dated 2018)
# Where a name gives a salt, the structure may show the parent alone. Read-outs that look alike come from different tables or passages of the source.
# Key:
# H3122 = assay: Cancer cell proliferation inhibition (SRB/MTS), H3122; conditions: read-out: H3122 GI50
# Description: (§1) Cancer cell lines used in the experiments were all human-derived cancer cell lines, specifically H2228 and H3122, which are non-small cell lung cancer cell lines.
# (§2) The cancer cell proliferation inhibition was measured using the MTS assay as follows. […] Each culture medium was placed in an incubator for 4 hours, taken out and left at room temperature for 10 minutes.
# H2228 = assay: Cancer cell proliferation inhibition (SRB/MTS), H2228; conditions: read-out: H2228 GI50
# Description: as §1, §2
# BaF3 EML4-ALK WT cells = assay: Cytotoxicity on BaF3 cell transfected with EML4-ALK WT (WST-1); conditions: Ba/F3 EML4-ALK, 72 h, read-out: BaF3 EML4-ALK WT, IC50 of the cytotoxicity
Compound,"GI50 (H3122; Homo sapiens, NCI-H3122, 72 h) [nM]","GI50 (H2228; Homo sapiens, NCI-H2228, 72 h) [nM]",IC50 (BaF3 EML4-ALK WT cells) [nM],GI50 (H3122) [nM],GI50 (H2228) [nM],GI50 (H3122; hydrochloride) [nM],GI50 (H2228; hydrochloride) [nM]
"C[C@@H](Oc1cc(-c2cnn(C3CCNCC3)c2)cnc1N)c1c(Cl)ccc(F)c1Cl [Comparative Example 1, Crizotinib, reference compound]",280,85,–,–,–,–,–
"COc1cc2c(cc1Nc1ncc(Cl)c(Nc3ccccc3S(=O)(=O)C(C)C)n1)C1(CCCC1)CNC2 [Example 14, 5-chloro-N4-(2-(isopropylsulfonyl)phenyl)-N2-(7-methoxy-2,3-dihydro-1H-spiro[cyclopentane-1,4-isoquinoline]-6-yl)pyrimidine-2,4-diamine]",< 50,< 50,–,–,–,–,–
"COc1cc2c(cc1Nc1ncc(Cl)c(Nc3ccccc3S(=O)(=O)C(C)C)n1)C1(CCCCC1)CNC2 [Example 16, 5-chloro-N4-(2-(isopropylsulfonyl)phenyl)-N2-(7-methoxy-2,3-dihydro-1H-spiro[cyclohexane-1,4-isoquinoline]-6-yl)pyrimidine-2,4-diamine]",< 50,< 50,< 50,–,–,–,–
"CC(C)COc1cc2c(cc1Nc1ncc(Cl)c(Nc3ccccc3S(=O)(=O)C(C)C)n1)CCN(C(=O)C(F)(F)F)C2 [Example 19, 1-(6-(5-chloro-4-(2-(isopropylsulfonyl)phenylamino)pyrimidin-2-yl)amino-7-isobutoxy-3,4-dihydroisoquinolin-2(1H)-yl)-2,2,2-trifluoroethane-1-one]",< 50,< 50,< 50,–,–,–,–
COc1cc2c(cc1Nc1ncc(Cl)c(Nc3ccccc3S(=O)(=O)C(C)C)n1)CCNC2C (stereo not drawn) [Example 25],8.9,< 50,–,–,–,–,–
CCC1NCCc2cc(Nc3ncc(Cl)c(Nc4ccccc4S(=O)(=O)C(C)C)n3)c(OC)cc21 (stereo not drawn) [Example 27],8.4,< 50,–,–,–,–,–
"COc1cc2c(cc1Nc1ncc(Cl)c(Nc3ccccc3S(=O)(=O)C(C)C)n1)CC1(CC1)NC2C (stereo not drawn) [Example 30, 5-chloro-N4-(2-(isopropylsulfonyl)phenyl)-N2-(7-methoxy-1methyl-1,4-dihydro-2H-spiro[cyclopropane-1,3-isoquinoline]-6-yl)pyrimidine-2,4-diamine]",< 50,< 50,5,–,–,–,–
"COc1cc2c(cc1Nc1ncc(Cl)c(Nc3ccccc3S(=O)(=O)C(C)C)n1)CCN(Cc1ccccc1)C2(C)C [Example 31, 5-chloro-N4-(2-(isopropylsulfonyl)phenyl)-N2-(2-benzyl-7-methoxy-1,1-dimethyl-1,2,3,4-tetrahydroisoquinolin-6-yl)pyrimidine-2,4-diamine]",< 50,< 50,< 50,–,–,–,–
"COc1cc2c(cc1Nc1ncc(Cl)c(Nc3ccccc3S(=O)(=O)C(C)C)n1)CCNC2(C)C [Example 33, 5-chloro-N4-(2-(isopropylsulfonyl)phenyl)-N2-(7-methoxy-1,1-dimethyl-1,2,3,4-tetrahydroisoquinolin-6-yl)pyrimidine-2,4-diamine]",–,–,–,11,18,–,–
"COc1cc2c(cc1Nc1ncc(Cl)c(Nc3ccccc3S(=O)(=O)C(C)C)n1)CN(C)CC2 [Example 35, 5-chloro-N4-(2-(isopropylsulfonyl)phenyl)-N2-(6-methoxy-2-methyl-1,2,3,4-tetrahydroisoquinolin-7-yl)pyrimidine-2,4-diamine]",< 50,< 50,–,–,–,–,–
COc1cc2c(cc1Nc1ncc(Cl)c(Nc3ccccc3S(=O)(=O)C(C)C)n1)CCN1C(=O)CNCC21 (stereo not drawn) [Example 84],< 50,< 50,–,–,–,–,–
COc1cc2c(cc1Nc1ncc(Cl)c(Nc3ccccc3S(=O)(=O)C(C)C)n1)C1CNCC(=O)N1CC2 (stereo not drawn) [Example 97],< 50,< 50,–,–,–,–,–
"COc1cc2c(cc1Nc1ncc(Cl)c(Nc3ccccc3S(=O)(=O)C(C)C)n1)CCNC2(C)C [Example 101, 5-chloro-N4-(2-(isopropylsulfonyl)phenyl)-N2-(7-methoxy-1,1-dimethyl-1,2,3,4-tetrahydroisoquinolin-6-yl)pyrimidine-2,4-diamine hydrochloride]",–,–,–,–,–,< 50,< 50

# Continued, in another order:
"GI50 (H3122; Homo sapiens, NCI-H3122, 72 h) [nM]","GI50 (H2228; Homo sapiens, NCI-H2228, 72 h) [nM]",Compound,IC50 (BaF3 EML4-ALK WT cells) [nM],GI50 (H3122) [nM],GI50 (H2228) [nM],GI50 (H3122; hydrochloride) [nM],GI50 (H2228; hydrochloride) [nM]
< 50,15,"COc1cc2c(cc1Nc1ncc(Cl)c(Nc3ccccc3S(=O)(=O)C(C)C)n1)CNC2 [Example 1, 5-chloro-N4-(2-(isopropylsulfonyl)phenyl)-N2-(6-methoxyisoindolin-5-yl)pyrimidine-2,4-diamine]",< 50,–,–,–,–
< 50,< 50,"COc1cc2c(cc1Nc1ncc(Cl)c(Nc3ccccc3S(=O)(=O)C(C)C)n1)C(C)(C)CN(C(=O)C(F)(F)F)C2 [Example 11, 1-(6-(5-chloro-4-(2-(isopropylsulfonyl)phenylamino)pyrimidin-2-yl)amino-7-methoxy-4,4-dimethyl-3,4-dihydroisoquinolin-2(1H)-yl)-2,2,2-trifluoroethane-1-one]",< 50,–,–,–,–
< 50,< 50,"COc1cc2c(cc1Nc1ncc(Cl)c(Nc3ccccc3S(=O)(=O)C(C)C)n1)C(C)(C)CNC2 [Example 12, 5-chloro-N4-(2-(isopropylsulfonyl)phenyl)-N2-(7-methoxy-4,4-dimethyl-1,2,3,4-tetrahydroisoquinolin-6-yl)pyrimidine-2,4-diamine]",< 50,–,–,–,–
< 50,< 50,"COc1cc2c(cc1Nc1ncc(Cl)c(Nc3ccccc3S(=O)(=O)C(C)C)n1)C1(CCCC1)CN(C(=O)C(F)(F)F)C2 [Example 13, 1-(6-(5-chloro-4-(2-(isopropylsulfonyl)phenylamino)pyrimidin-2-yl)amino-7-methoxy-1H-spiro[cyclopentane-1,4-isoquinoline]-2(3H)-yl)-2,2,2-trifluoroethane-1-one]",< 50,–,–,–,–
< 50,< 50,"COc1cc2c(cc1Nc1ncc(Cl)c(Nc3ccccc3S(=O)(=O)C(C)C)n1)C1(CCCCC1)CN(C(=O)C(F)(F)F)C2 [Example 15, 1-(6-(5-chloro-4-(2-(isopropylsulfonyl)phenylamino)pyrimidin-2-yl)amino-7-methoxy-1H-spiro[cyclohexane-1,4-isoquinoline]-2(3H)-yl)-2,2,2-trifluoroethane-1-one]",< 50,–,–,–,–
< 50,< 50,"CC(C)Oc1cc2c(cc1Nc1ncc(Cl)c(Nc3ccccc3S(=O)(=O)C(C)C)n1)CCN(C(=O)C(F)(F)F)C2 [Example 17, 1-(6-(5-chloro-4-(2-(isopropylsulfonyl)phenylamino)pyrimidin-2-yl)amino-7-isopropoxy-3,4-dihydroisoquinolin-2(1H)-yl)-2,2,2-trifluoroethane-1-one]",< 50,–,–,–,–
< 50,< 50,CCC(C)Oc1cc2c(cc1Nc1ncc(Cl)c(Nc3ccccc3S(=O)(=O)C(C)C)n1)CCN(C(=O)C(F)(F)F)C2 (stereo not drawn) [Example 21],< 50,–,–,–,–
< 50,< 50,COc1cc2c(cc1Nc1ncc(Cl)c(Nc3ccccc3S(=O)(=O)C(C)C)n1)CCN(C1CCNCC1)C2 [Example 24],< 50,–,–,–,–
< 50,< 50,COc1cc2c(cc1Nc1ncc(Cl)c(Nc3ccccc3S(=O)(=O)C(C)C)n1)CCNC2C(F)(F)F (stereo not drawn) [Example 26],< 50,–,–,–,–
21,< 50,COc1cc2c(cc1Nc1ncc(Cl)c(Nc3ccccc3S(=O)(=O)C(C)C)n1)CCNC2C(C)C (stereo not drawn) [Example 28],13,–,–,–,–
< 50,< 50,COc1cc2c(cc1Nc1ncc(Cl)c(Nc3ccccc3S(=O)(=O)C(C)C)n1)CC1(CC1)N(C(=O)C(F)(F)F)C2C (stereo not drawn) [Example 29],< 50,–,–,–,–
< 50,< 50,"COc1cc2c(cc1Nc1ncc(Cl)c(Nc3ccccc3S(=O)(=O)C(C)C)n1)CCN(C(=O)C(F)(F)F)C2(C)C [Example 32, 1-(6-(5-chloro-4-(2-(isopropylsulfonyl)phenylamino)pyrimidin-2-yl)amino-7-methoxy-1,1-dimethyl-3,4-dihydroisoquinolin-2(1H)-yl)-2,2,2-trifluoroethane-1-one]",< 50,–,–,–,–
< 50,< 50,COc1cc2c(cc1Nc1ncc(Cl)c(Nc3ccccc3S(=O)(=O)C(C)C)n1)C(=O)NCC2 [Example 44],< 50,–,–,–,–
< 50,< 50,COc1cc2c(cc1Nc1ncc(Cl)c(Nc3ccccc3S(=O)(=O)C(C)C)n1)C(C)NCC2 (stereo not drawn) [Example 46],< 50,–,–,–,–
< 50,< 50,"CC(C)Oc1cc2c(cc1Nc1ncc(Cl)c(Nc3ccccc3S(=O)(=O)C(C)C)n1)CCNC2C (stereo not drawn) [Example 70, 5-chloro-N4-(2-(isopropylsulfonyl)phenyl)-N2-(7-isopropoxy-1-methyl-1,2,3,4-tetrahydroisoquinolin 6 yl)pyrimidine-2,4-diamine]",< 50,–,–,–,–
< 50,< 50,"CC(C)Oc1cc2c(cc1Nc1ncc(Cl)c(Nc3ccccc3S(=O)(=O)C(C)C)n1)CCNC2(C)C [Example 71, 5-chloro-N4-(2-(isopropylsulfonyl)phenyl)-N2-(7-isopropoxy-1,1-dimethyl-1,2,3,4-tetrahydroisoquinolin-6-yl)pyrimidine-2,4-diamine]",< 50,–,–,–,–
< 50,< 50,"COc1cc2c(cc1Nc1ncc(Cl)c(Nc3ccccc3S(=O)(=O)C(C)C)n1)C(C)(C)NCC2 [Example 72, 5-chloro-N4-(2-(isopropylsulfonyl)phenyl)-N2-(6-methoxy-1,1-dimethyl-1,2,3,4-tetrahydroisoquinolin-7-yl)pyrimidine-2,4-diamine]",< 50,–,–,–,–
< 50,< 50,"CCC1(C)NCCc2cc(Nc3ncc(Cl)c(Nc4ccccc4S(=O)(=O)C(C)C)n3)c(OC)cc21 (stereo not drawn) [Example 73, 5-chloro-N4-(2-(isopropylsulfonyl)phenyl)-N2-(l-ethyl-7-methoxy-1-methyl-1,2,3,4-tetrahydroisoquinolin-6-yl)pyrimidine-2,4-diamine]",< 50,–,–,–,–
